Assay results from patent US20240174692A1, “PYRIMIDINE AROMATIC RING COMPOUNDS” (Medshine Discovery Inc., priority 2021, published 2024).

How the values were obtained:
plasma protein [1] = test: Plasma protein binding (PPB), equilibrium dialysis, M plasma; format: in vitro ADME, mouse; details: 2 μM, 4 hr dialysis
Procedure: (§1) Assay procedure: 995 μL of blank plasma of various genera were weighed, and 5 μL of assay compound working solution (400 μM) or warfarin working solution (400 μM) was added so that the final concentrations of the assay compound and warfarin in plasma sample were each 2 μM. The samples were mixed thoroughly. The final concentration of DMSO (the organic phase) was 0.5%. 50 μL of the plasma samples of the assay compound and warfarin were pipetted to a sample receiving plate (in triplicate), and the corresponding volume of corresponding blank plasma or buffer was added immediately, so that the final volume in each sample well was 100 μL, wherein the volume ratio of plasma:dialysis buffer was 1:1. 500 μL of stop solution was then added to these samples. These samples were used as T0 samples for determination of recovery and stability. […] All samples were subjected to protein precipitation, and then analyzed by LC/MS/MS. Bound rate and recovery rate of protein were calculated using the following formulae: % Unbound=100*F/T % Bound=100−% Unbound, % Recovery=100*(F+T)/T0 (wherein F is the peak area ratio of the compound in the dialysate after 4 h of dialysis; T is the peak area ratio of the compound in the plasma after 4 h of dialysis; T0 is the peak area ratio of the compound in the plasma sample at time zero).

p-ERK in GP2D cells = test: Assay of p-ERK inhibition in GP2D cells (HTRF); format: cell-based; details: Homo sapiens, 1 hour incubation
Procedure: 2. Assay Process • 1) GP2D cells were inoculated in a transparent 96-well cell culture plate, and each well contained 80 μL of cell suspension and 8000 cells. The cell plate was inoculated in a carbon dioxide incubator at 37° C. overnight; • 2) 2 μL of the compound was weighed and added to 78 μL of the cell medium. After the mixture was mixed thoroughly, 20 μL of the solution of compound was weighed and added to the corresponding well of the cell plate. The cell plate was placed back to the carbon dioxide incubator and incubated for another 1 hour; • 3) After completion of the incubation, the cell supernatant was discarded. 50 μL of 1× cell lysate was added to each well. The mixture was incubated with shaking at room temperature for 30 minutes; • 4) Phospho-ERK1/2 Eu Cryptate antibody and Phospho-ERK1/2 d2 antibody were diluted 20-fold with detection buffer; • 5) 16 μL of cell lysate supernatant was weighed and added into each well of a new 384 white microwell plate, and then 2 μL of the diluted solution of Phospho-ERK1/2 Eu Cryptate antibody and 2 μL of the diluted solution of Phospho-ERK1/2 d2 antibody dilution were added. The mixture was incubated at room temperature for at least 4 hours; • 6) After completion of the incubation, HTRF was read with multi-label analyzer: excitation: 320 nm, emission: 615 nm, 665 nm; • 7). IC50 of the compounds to be assayed was calculated.

[2] = test system: human colon cancer GP2D xenograft tumor; test: In vivo pharmacodynamic study, GP2D xenograft tumor model in Balb/c nude mouse; details: PO
Procedure: An xenograft tumor model in GP2D Balb/c nude mouse:
Assay method: A Balb/c nude mouse model of subcutaneously xenograft tumor of human colon cancer GP2D cells was established. 0.2 mL (2×10^6) of GP2D cells (Matrigel was added, and volume ratio was 1:1) were inoculated subcutaneously on the right back of each mouse. When the average tumor volume reached 149 mm^3, the administration was started by group, with 6 mice in each group. On the day of the assay, the animals were administered the corresponding drugs according to the corresponding groups. The first group G1 was set as a negative control group, which was given 5% DMSO+95%(10% HP-β-CD) alone by gavage administration. The second group G2 to the fifth group G5 were given compound 014, and the dosage and protocol of administration were shown in Table 19.
During the assay, the body weight of animals and the tumor size were measured twice a week. Meanwhile, clinical symptoms of animals were observed and recorded every day. Each administration was referenced to the most recent body weight of animals.
The length (a) and width (b) of a tumor were measured with a digital vernier caliper. The calculation formula of tumor volume (TV) was: TV=a×b^2/2.

plasma protein [3] = test: Plasma protein binding (PPB), equilibrium dialysis, D plasma; format: in vitro ADME, dog; details: 2 μM, 4 hr dialysis
Procedure: as §1

SMILES: C#Cc1c(F)ccc2cc(N)cc(-c3ccc4c(N5CC6CCC(C5)N6)nc(OC[C@@]56CCCN5C[C@H](F)C6)nc4c3F)c12 [Compound 014]
- Unbound PPB M (plasma protein [1]): 4.5%
- IC50 (p-ERK in GP2D cells): 430 pM
- Tumor volume inhibition rate TGI ([2]; G2, 25 mg/kg, BID*22, at day 14): 84.2%
- Tumor volume inhibition rate TGI ([2]; G3, 50 mg/kg, BID*22, at day 14): 89.4%
- Tumor volume inhibition rate TGI ([2]; G4, 150 mg/kg, BID*22, at day 14): 97.3%
- Tumor volume inhibition rate TGI ([2]; G5, 150 mg/kg, QD*22): 91.4%
- Unbound PPB D (plasma protein [3]): 3.0%
